Source: paper PMC3907537, “Evaluation of the Endothelin Receptor Antagonists Ambrisentan, Bosentan, Macitentan, and Sitaxsentan as Hepatobiliary Transporter Inhibitors and Substrates in Sandwich-Cultured Human Hepatocytes” (PLoS ONE, 2014)

System: sandwich-cultured human hepatocytes
Assay: Effect of ERAs on endogenous glycochenodeoxycholic acid (GCDCA) distribution in sandwich-cultured human hepatocytes
Assay type: cell-based
Conditions: 1 µM, 24 h; mean ± standard error, n=3 human livers
Description: Sandwich-cultured human hepatocytes were obtained from Celsis/IVT (Baltimore, MD) or Life Technologies (Durham, NC). […] Hepatic uptake, biliary excretion and in vitro biliary clearance (Clb) were determined using the B-CLEAR® hepatocyte sandwich culture model as described by Liu et al., 1999 [34]. In this system, hepatocytes form functional bile canalicular networks while maintaining the expression and function of key uptake and efflux transporters. The canalicular system of bile pockets remains separate from the cellular culture media due to tight junctions between cells. The integrity of these tight junctions is maintained in the presence of calcium (Plus (+) buffer) while in the absence of calcium (Minus (−) buffer), these tight junctions open and release the contents of the canalicular network into the media.
Incubation solutions containing ERA (1, 10 and 100 µM) were prepared in cell culture medium. On the sixth day of culturing of the sandwich-cultured hepatocytes, cell culture medium was removed from the wells and incubation solutions containing the test ERAs were added to the cells. The cells were incubated with ERA solution for 24 h at 37°C. After the exposure, the incubation solutions were removed and the cells were rinsed with Plus (+) or Minus (−) buffer. The buffer solutions were then removed and the cells were incubated with fresh Plus (+) or Minus (−) buffer for 5 min at 37°C. Following this 5 minute incubation, the buffer solutions were collected and any remaining buffers were removed. The cells were then washed three times with ice-cold Plus (+) buffer and the plates were frozen at −80°C until processed for bioanalysis.
Study samples were stored in their original 24-well plates at −80°C until prepared for analysis. A volume of 500 µL of cell lysis solution (70∶30 methanol:water) containing 25 nM internal standard was added to each well and mixed for 20 min of mixing. The volume in each well was then transferred to a 96-well filter plate stacked on a Greiner deep well collection plate. The filter plate/collection plate was then centrifuged at 2000 rcf for 5 min. The filtrate was then evaporated to dryness under nitrogen. Samples were reconstituted in 200 µL of sample diluent (60∶40 methanol:10 mM ammonium acetate, native pH), sealed, and placed on a plate shaker for 15 min. These samples were then transferred to a Whatman 96-well 0.45 µm PVDF filter plate stacked on a Costar 3956 plate (HPLC injection plate), centrifuged at 2000 rcf for 2–3 min, and sealed with a silicon cap mat prior to LC-MS/MS analysis. d8-TCA standard spiking solutions were prepared in 50∶50 methanol:water. For a given lysate standard or control, 10 µL was added to each well of a previously frozen analytical plate. Standards representing 0.5–100 pmoles/well and QC’s at the LLQ and ULQ were prepared. These lysate standards and controls were then further processed as described above for unknown study samples. Prepared samples were filtered and analyzed by LC-MS/MS using a Shimadzu binary HPLC system (Columbia, MD) and tandem mass spectrometry using Thermo Electron TSQ® Quantum Discovery MAX™ (Waltham, MA) with an Ion Max ESI source operating in negative ion electrospray ionization mode. Results for unknowns and QCs were calculated using a standard curve based on an internal standard processing method.
Statistical comparisons across ERA treatments were performed using analysis of variance (ANOVA) with Fisher’s PLSD post hoc analysis (Statview 5.0, SAS Institute, Cary NC); statistical significance was considered to be P<0.05. All mass values were normalized to mg protein by taking the average protein mass in the taurocholate plate determined using a BCA protein assay (Pierce Biotechnology, Rockford, IL). Cellular accumulation determined in Minus (−) buffer (Accumulation Minus (−) Buffer) represents the total mass of analyte inside the hepatocyte at the end of the incubation time period. […]

`Cc1cc2c(cc1CC(=O)c1sccc1S(=O)(=O)Nc1onc(C)c1Cl)OCO2` [sitaxsentan] and `COc1ccccc1Oc1c(NS(=O)(=O)c2ccc(C(C)(C)C)cc2)nc(-c2ncccn2)nc1OCCO` [bosentan] are within error of each other in “GCDCA BEI (% Control)” value: 112.0 ± 19.8 % Control for the first, 94.5 ± 12.4 % Control for the second.

`COC(c1ccccc1)(c1ccccc1)[C@H](Oc1nc(C)cc(C)n1)C(=O)O` [ambrisentan] and `CCCNS(=O)(=O)Nc1ncnc(OCCOc2ncc(Br)cn2)c1-c1ccc(Br)cc1` [macitentan] are within error of each other in “GCDCA BEI (% Control)” value: 95.1 ± 16.3 % Control for the first, 98.7 ± 14.8 % Control for the second.

`Cc1cc2c(cc1CC(=O)c1sccc1S(=O)(=O)Nc1onc(C)c1Cl)OCO2` [sitaxsentan] and `COc1ccccc1Oc1c(NS(=O)(=O)c2ccc(C(C)(C)C)cc2)nc(-c2ncccn2)nc1OCCO` [bosentan] are within error of each other in “GCDCA Cellular Accumulation (% Control)” value: 89.8 ± 10.8 % Control for the first, 88.0 ± 5.9 % Control for the second.

First: COC(c1ccccc1)(c1ccccc1)[C@H](Oc1nc(C)cc(C)n1)C(=O)O [ambrisentan]
Second: CCCNS(=O)(=O)Nc1ncnc(OCCOc2ncc(Br)cn2)c1-c1ccc(Br)cc1 [macitentan]
The “GCDCA Cellular Accumulation (% Control)” value of the first is higher: 104.0 ± 3.0 % Control for the first, 88.7 ± 0.8 % Control for the second.

`Cc1cc2c(cc1CC(=O)c1sccc1S(=O)(=O)Nc1onc(C)c1Cl)OCO2` [sitaxsentan] and `COc1ccccc1Oc1c(NS(=O)(=O)c2ccc(C(C)(C)C)cc2)nc(-c2ncccn2)nc1OCCO` [bosentan] are within error of each other in “GCDCA Medium Concentration (% Control)” value: 110.0 ± 9.2 % Control for the first, 114.0 ± 9.9 % Control for the second.

`COC(c1ccccc1)(c1ccccc1)[C@H](Oc1nc(C)cc(C)n1)C(=O)O` [ambrisentan] and `CCCNS(=O)(=O)Nc1ncnc(OCCOc2ncc(Br)cn2)c1-c1ccc(Br)cc1` [macitentan] are within error of each other in “GCDCA Medium Concentration (% Control)” value: 110.0 ± 7.6 % Control for the first, 111.0 ± 9.0 % Control for the second.

`Cc1cc2c(cc1CC(=O)c1sccc1S(=O)(=O)Nc1onc(C)c1Cl)OCO2` [sitaxsentan] and `COc1ccccc1Oc1c(NS(=O)(=O)c2ccc(C(C)(C)C)cc2)nc(-c2ncccn2)nc1OCCO` [bosentan] are within error of each other in “GCDCA Total Accumulation (% Control)” value: 99.3 ± 11.0 % Control for the first, 86.8 ± 3.5 % Control for the second.

Compared with `COC(c1ccccc1)(c1ccccc1)[C@H](Oc1nc(C)cc(C)n1)C(=O)O` [ambrisentan], `CCCNS(=O)(=O)Nc1ncnc(OCCOc2ncc(Br)cn2)c1-c1ccc(Br)cc1` [macitentan] is lower in “GCDCA Total Accumulation (% Control)” value: 103.0 ± 8.1 % Control for the first, 90.0 ± 4.0 % Control for the second.

Same assay, conditions: 10 µM, 24 h; mean ± standard error, n=3 human livers

`Cc1cc2c(cc1CC(=O)c1sccc1S(=O)(=O)Nc1onc(C)c1Cl)OCO2` [sitaxsentan] and `COc1ccccc1Oc1c(NS(=O)(=O)c2ccc(C(C)(C)C)cc2)nc(-c2ncccn2)nc1OCCO` [bosentan] are within error of each other in “GCDCA BEI (% Control)” value: 85.7 ± 8.4 % Control for the first, 65.7 ± 21.7 % Control for the second.

`COC(c1ccccc1)(c1ccccc1)[C@H](Oc1nc(C)cc(C)n1)C(=O)O` [ambrisentan] and `CCCNS(=O)(=O)Nc1ncnc(OCCOc2ncc(Br)cn2)c1-c1ccc(Br)cc1` [macitentan] are within error of each other in “GCDCA BEI (% Control)” value: 81.3 ± 11.0 % Control for the first, 89.4 ± 14.2 % Control for the second.

First: Cc1cc2c(cc1CC(=O)c1sccc1S(=O)(=O)Nc1onc(C)c1Cl)OCO2 [sitaxsentan]
Second: COc1ccccc1Oc1c(NS(=O)(=O)c2ccc(C(C)(C)C)cc2)nc(-c2ncccn2)nc1OCCO [bosentan]
The “GCDCA Cellular Accumulation (% Control)” value of the first is higher: 79.4 ± 12.4 % Control for the first, 54.8 ± 4.4 % Control for the second.

Compared with `COC(c1ccccc1)(c1ccccc1)[C@H](Oc1nc(C)cc(C)n1)C(=O)O` [ambrisentan], `CCCNS(=O)(=O)Nc1ncnc(OCCOc2ncc(Br)cn2)c1-c1ccc(Br)cc1` [macitentan] is lower in “GCDCA Cellular Accumulation (% Control)” value: 83.6 ± 11.6 % Control for the first, 52.1 ± 2.6 % Control for the second.

`Cc1cc2c(cc1CC(=O)c1sccc1S(=O)(=O)Nc1onc(C)c1Cl)OCO2` [sitaxsentan] and `COc1ccccc1Oc1c(NS(=O)(=O)c2ccc(C(C)(C)C)cc2)nc(-c2ncccn2)nc1OCCO` [bosentan] are within error of each other in “GCDCA Medium Concentration (% Control)” value: 105.0 ± 11.9 % Control for the first, 109.0 ± 14.7 % Control for the second.

`COC(c1ccccc1)(c1ccccc1)[C@H](Oc1nc(C)cc(C)n1)C(=O)O` [ambrisentan] and `CCCNS(=O)(=O)Nc1ncnc(OCCOc2ncc(Br)cn2)c1-c1ccc(Br)cc1` [macitentan] are within error of each other in “GCDCA Medium Concentration (% Control)” value: 109.0 ± 16.0 % Control for the first, 98.7 ± 10.1 % Control for the second.

First: Cc1cc2c(cc1CC(=O)c1sccc1S(=O)(=O)Nc1onc(C)c1Cl)OCO2 [sitaxsentan]
Second: COc1ccccc1Oc1c(NS(=O)(=O)c2ccc(C(C)(C)C)cc2)nc(-c2ncccn2)nc1OCCO [bosentan]
The “GCDCA Total Accumulation (% Control)” value of the first is higher: 73.8 ± 10.5 % Control for the first, 47.2 ± 2.3 % Control for the second.

Going from `COC(c1ccccc1)(c1ccccc1)[C@H](Oc1nc(C)cc(C)n1)C(=O)O` [ambrisentan] to `CCCNS(=O)(=O)Nc1ncnc(OCCOc2ncc(Br)cn2)c1-c1ccc(Br)cc1` [macitentan], the “GCDCA Total Accumulation (% Control)” value falls from 75.7 ± 8.0 % Control to 48.9 ± 0.9 % Control.

Same assay, conditions: 100 µM, 24 h; mean ± standard error, n=3 human livers

`Cc1cc2c(cc1CC(=O)c1sccc1S(=O)(=O)Nc1onc(C)c1Cl)OCO2` [sitaxsentan] and `COc1ccccc1Oc1c(NS(=O)(=O)c2ccc(C(C)(C)C)cc2)nc(-c2ncccn2)nc1OCCO` [bosentan] are within error of each other in “GCDCA BEI (% Control)” value: 55.5 ± 34.3 % Control for the first, 56.8 ± 11.9 % Control for the second.

`COC(c1ccccc1)(c1ccccc1)[C@H](Oc1nc(C)cc(C)n1)C(=O)O` [ambrisentan] and `CCCNS(=O)(=O)Nc1ncnc(OCCOc2ncc(Br)cn2)c1-c1ccc(Br)cc1` [macitentan] are within error of each other in “GCDCA BEI (% Control)” value: 76.0 ± 38.1 % Control for the first, 37.5 ± 21.9 % Control for the second.

First: Cc1cc2c(cc1CC(=O)c1sccc1S(=O)(=O)Nc1onc(C)c1Cl)OCO2 [sitaxsentan]
Second: COc1ccccc1Oc1c(NS(=O)(=O)c2ccc(C(C)(C)C)cc2)nc(-c2ncccn2)nc1OCCO [bosentan]
The “GCDCA Cellular Accumulation (% Control)” value of the first is lower: 14.5 ± 2.7 % Control for the first, 30.3 ± 6.7 % Control for the second.

First: COC(c1ccccc1)(c1ccccc1)[C@H](Oc1nc(C)cc(C)n1)C(=O)O [ambrisentan]
Second: CCCNS(=O)(=O)Nc1ncnc(OCCOc2ncc(Br)cn2)c1-c1ccc(Br)cc1 [macitentan]
The “GCDCA Cellular Accumulation (% Control)” value of the first is higher: 27.6 ± 3.4 % Control for the first, 11.4 ± 3.2 % Control for the second.

First: Cc1cc2c(cc1CC(=O)c1sccc1S(=O)(=O)Nc1onc(C)c1Cl)OCO2 [sitaxsentan]
Second: COc1ccccc1Oc1c(NS(=O)(=O)c2ccc(C(C)(C)C)cc2)nc(-c2ncccn2)nc1OCCO [bosentan]
The “GCDCA Medium Concentration (% Control)” value of the first is lower: 76.5 ± 8.3 % Control for the first, 126.0 ± 7.9 % Control for the second.

First: COC(c1ccccc1)(c1ccccc1)[C@H](Oc1nc(C)cc(C)n1)C(=O)O [ambrisentan]
Second: CCCNS(=O)(=O)Nc1ncnc(OCCOc2ncc(Br)cn2)c1-c1ccc(Br)cc1 [macitentan]
The “GCDCA Medium Concentration (% Control)” value of the first is higher: 103.0 ± 2.3 % Control for the first, 51.8 ± 7.1 % Control for the second.

Compared with `Cc1cc2c(cc1CC(=O)c1sccc1S(=O)(=O)Nc1onc(C)c1Cl)OCO2` [sitaxsentan], `COc1ccccc1Oc1c(NS(=O)(=O)c2ccc(C(C)(C)C)cc2)nc(-c2ncccn2)nc1OCCO` [bosentan] is higher in “GCDCA Total Accumulation (% Control)” value: 12.4 ± 3.0 % Control for the first, 25.4 ± 6.0 % Control for the second.

First: COC(c1ccccc1)(c1ccccc1)[C@H](Oc1nc(C)cc(C)n1)C(=O)O [ambrisentan]
Second: CCCNS(=O)(=O)Nc1ncnc(OCCOc2ncc(Br)cn2)c1-c1ccc(Br)cc1 [macitentan]
The “GCDCA Total Accumulation (% Control)” value of the first is higher: 26.3 ± 5.7 % Control for the first, 8.38 ± 1.4 % Control for the second.
